The text below walks through data of patent publication US7893199B2, “Peptides having neutrophil-stimulating activity” (National University Corporation Gunma University, priority 2006, dated 2011).

Read-outs that look alike come from different tables or passages of the source. Where a SMILES comes first, the peptide text is derived from it. Where no end group is shown, it is not given here.

As a reminder, the EC50 is the concentration at which the effect is half-maximal.

The test system of assay [1] is differentiated HL-60 cells. Description: migration activity (Chemotaxis Index) of differentiated HL-60 cells. It counts as cell-based, human. The protocol: (3) Measurement of Migration Activity
The cells were collected by centrifuging the suspension of the differentiated HL-60 cells (1,000 rpm, 5 minutes, 4° C.). After that, the following operation was repeated three times to wash the cells: 10% FBS-RPMI1640 was added to the cells; the mixture was suspended by inversion; and the mixture was centrifuged again (1,000 rpm, 5 minutes, 4° C.). Then, a medium (10% FBS-RPMI1640) was added so that a cell density was 4×10^6 cells/ml, thereby a cell suspension was prepared. Subsequently, 1 ml of each peptide solution (dissolved in 10% FBS-RPMI 1640) was transferred to each well of a 24-well plate, and the plate was incubated at 37° C. for 20 minutes. After that, 500 μl of the cell suspension (2×10^6 cells) were put in Chemotaxicell (KURABO […] LTD., 3 μm) and the Chemotaxicell was set in a plate, followed by incubation in the presence of 5% CO2 at 37° C. for 1 hour. Then, the Chemotaxicell was removed and the solution in each well of the plate was pipetted. The cells migrated to the plate side was suspended well and the number of the cells were measured. Note that the migration activity by the peptide was represented by a ratio of the number of the cells to the number of the cells passing the Chemotaxicell at the time of non-stimulation (Chemotaxis Index, CI).

The subject of assay [2] is HL-60 cells differentiated into the neutrophil-like cells. Description: β-hexosaminidase-secreting activity of neutrophil-like differentiated HL-60 cells. It counts as cell-based, human. To be noted: for Activity (β-hexosaminidase-secreting activity class): lowest concentration class at which secretion was confirmed. The source says: (1) Culture of Cell and Differentiation Into Neutrophil-like Cell
In this time, the cells were subcultured at a cell density of 1.0×10^5 cells/ml to 1.5×10^6 cells/ml, the number of cells was counted using a microscope, and the state of the cells was also confirmed.
The HL-60 cells were differentiated into neutrophil-like cells by setting the cell density in the flask to about 1.0×10^6 cells/ml, adding dibutylyl-cAMP (db-cAMP) as a differentiation-inducing agent so as to have a final concentration of 500 μM, and incubating the cells in the presence of CO2 at 37° C. for 3 days.
(2) Stimulation of Cell and Measurement of β-Hexosaminidase-secreting Activity
The cells were collected by centrifuging the suspension of the differentiated HL-60 cells (1,000 rpm, 5 minutes, 4° C.). After that, the following operation was repeated three times to wash the cells: Hepes buffered Hank's solution (HBHS) containing ice-cooled 0.1% BSA (1.2 mM CaCl2.2H2O, 5.4 mM KCl, 0.44 mM KH2PO4, 0.49 mM MgCl2.6H2O, 0.41 mM MgSO4.7H2O, 136.9 mM NaCl, 0.34 mM Na2HPO4, 10 mM Hepes, 4.2 mM NaHCO3, 5.5 mM D-glucose, pH 7.4) was added to the cells; the mixture was suspended by inversion; and the mixture was centrifuged again (1,000 rpm, 5 minutes, 4° C.). Subsequently, HBHS was added so that the mixture has a cell density of 5.6×10^6 cells/ml and suspended. Then, DNase I and cytochalasin B were each added so as to have a final concentration of 5 μg/ml, and the cell suspension was dispensed in an amount of 90 μl (5×10^5 cells) on ice. […] After the cell stimulation for 10 minutes, 100 μl of an ice-cooled stop solution (25 mM Tris, 123 mM NaCl, 2.7 mM KCl, pH 7.4) were added, and immediately, the mixture was centrifuged (5,000 rpm, 1 minute, 4° C.). 200 μl of the obtained supernatant were transferred to a new tube.
The amount of β-hexosaminidase released in the supernatant of the reaction solution was measured by an enzyme reaction using p-nitrophenyl-N-acetyl-μ-D-glucosaminide as a substrate (Non-patent Document 12). That is, the supernatant of the reaction solution was dispensed in an amount of 90 μl to a 96-well plate. 60 μl of a substrate solution (10 mM p-nitrophenyl-N-acetyl-μ-D-glucosaminide, 40 mM citrate, 70 mM Na2HPO4, pH 4.5) were added to each well, followed by incubation at 37° C. for 1 hour. After the reaction, 100 μl of a stop solution (0.4 M glycine, pH 10.7) were added to each well and a color of the released p-nitrophenol was developed. The color development was measured with a plate reader at adsorption at 405 nm (reference: 492 nm). The all amount of β-hexosaminidase contained in the cells was quantified by treating the cells with Triton X-100 having a final concentration of 0.05%. In addition, the amount of β-hexosaminidase secreted by stimulation of 10 μM fMLP was also measured, and the ratio of the secretion amount by stimulation with each peptide to the above sectretion amount by stimulation with fMLP.

[3] abbreviates: differentiated HL-60 cells, read-out: EC50, β-hexosaminidase-secreting activity.
Where [4] appears, read: neutrophil-like differentiated HL-60 cells, Table 1, read-out: EC50 (μM), β-hexosaminidase-secreting activity.
Where [5] appears, read: neutrophil-like differentiated HL-60 cells.

As for `CC[C@H](C)[C@H](NC(=O)[C@H](CS)NC(=O)[C@H](CC(C)C)NC(=O)[C@H](CCC(N)=O)NC(=O)[C@@H]1CCCN1C(=O)[C@H](CO)NC(=O)[C@H](Cc1ccccc1)NC(=O)[C@H](Cc1c[nH]cn1)NC(=O)[C@H](C)NC(=O)[C@H](CCCNC(=N)N)NC(=O)[C@H](CC(C)C)NC(=O)[C@H](CS)NC(=O)[C@H](Cc1c[nH]cn1)NC(=O)[C@H](CCCNC(=N)N)NC(=O)CNC(=O)[C@@H](NC(=O)[C@H](Cc1c[nH]cn1)NC(=O)[C@H](CCCNC(=N)N)NC(=O)[C@H](CC(C)C)NC(=O)[C@H](CC(C)C)NC(=O)[C@H](CC(C)C)NC(=O)[C@H](C)NC(=O)[C@H](C)NC(=O)[C@@H](N)CCSC)C(C)C)C(=O)N[C@@H](CCCNC(=N)N)C(=O)N[C@@H](CC(N)=O)C(=O)N[C@@H](C)C(=O)N[C@H](C(=O)N1CCC[C@H]1C(=O)N[C@@H](CC(C)C)C(=O)O)C(C)C` [No. 023] (H-MAALLLRHVGRHCLRAHFSPQLCIRNAVPL-OH; N-terminus and C-terminus assumed), in assay [1], the “concentration of migration activity compared with that of β-hexosaminidase-secreting activity” value is recorded as “confirmed at the almost same concentration” and the “desensitization of migration activity with increasing concentration of the peptide” value is listed as “subjected to desensitization completely”. In addition, the EC50 in assay [2] (setting [3]) was 0.3 µM.
In the case of MALVHKLLRGTYFLRKFSKPTSAL [compound 025], the EC50 in assay [2] (setting [4]) was determined as 1.9 µM. The “Activity (β-hexosaminidase-secreting activity class)” value in assay [2] (setting [5]) is given as “⊚ (a peptide in which the β-hexosaminidase-secreting activity was confirmed at a concentration of 300 nM or less)”.
Consider MASRLLRGAGTLAAQALRA [compound 004], for which, in assay [2] (setting [4]), the EC50 was 15 µM. Further, in assay [2] (setting [5]), the “Activity (β-hexosaminidase-secreting activity class)” value is listed as “● (a peptide in which the β-hexosaminidase-secreting activity was confirmed at a concentration of 10 μM or less)”.
The like results for “MASRLLRGAGTLAAQALRARGPSGAAAMRSM [compound 001]” were, in that order, 23 µM and “● (a peptide in which the β-hexosaminidase-secreting activity was confirmed at a concentration of 10 μM or less)”.
Turning to MAVVGVSSVSRLLGRSRPQLGRPM [compound 009], the EC50 in assay [2] (setting [4]) is 5 µM. In addition, the “Activity (β-hexosaminidase-secreting activity class)” value in assay [2] (setting [5]) was “∘ (a peptide in which the β-hexosaminidase-secreting activity was confirmed at a concentration of 1 μM or less)”.
Regarding MFPLARNALSSLKIQSILQSMARH [No. 048], the “concentration of migration activity compared with that of β-hexosaminidase-secreting activity” value in assay [1] is “confirmed at the almost same concentration”. Besides, in assay [2] (setting [3]), the EC50 is 0.1 µM.
MFPLARNALSSLKIQSILQSMARH [compound 048]: the EC50 in assay [2] (setting [4]) was determined as 0.1 µM. For the same compound, the “Activity (β-hexosaminidase-secreting activity class)” value in assay [2] (setting [5]) is recorded as “⊚ (a peptide in which the β-hexosaminidase-secreting activity was confirmed at a concentration of 300 nM or less)”.
Taken in the same sequence, the figures for MFPLVKSALNRLQVRSIQQTMARQ [compound 015] were 0.38 µM and “⊚ (a peptide in which the β-hexosaminidase-secreting activity was confirmed at a concentration of 300 nM or less)”.
In the case of “MFPLVKSALNRLQVRSIQQTMARQSHQKRT [No. 031]”, in assay [1], the “concentration of migration activity compared with that of β-hexosaminidase-secreting activity” value is given as “confirmed at the almost same concentration”. Moreover, the “β-hexosaminidase-secreting activity of C-terminally extended peptide compared to the peptide before the extension” value in assay [2] (differentiated HL-60 cells) is given as “higher activity compared to the peptides before the extension”. Moreover, in assay [2] (setting [3]), the EC50 turned out to be 0.2 µM.
For the compound “MFPLVKSALNRLQVRSIQQTMARQSHQKRT [compound 031]”, in assay [2] (setting [4]), the EC50 worked out at 0.2 µM. Also, in assay [2] (setting [5]), the “Activity (β-hexosaminidase-secreting activity class)” value is on record as “⊚ (a peptide in which the β-hexosaminidase-secreting activity was confirmed at a concentration of 300 nM or less)”.
As for MFRRPVLQVLRQFVRH [No. 037], in assay [1], the “concentration of migration activity compared with that of β-hexosaminidase-secreting activity” value was “confirmed at the almost same concentration” and the “desensitization of migration activity with increasing concentration of the peptide” value is on record as “subjected to desensitization completely”. In assay [2] (setting [3]), the EC50 turned out to be 0.11 µM.
As to MFRRPVLQVLRQFVRH [compound 037], the EC50 in assay [2] (setting [4]) is 0.11 µM. Further, the “Activity (β-hexosaminidase-secreting activity class)” value in assay [2] (setting [5]) is reported as “⊚ (a peptide in which the β-hexosaminidase-secreting activity was confirmed at a concentration of 300 nM or less)”.
Taken in the same sequence, the figures for MKLLTRAGSFSRFY [compound 040] were 2 µM and “⊚ (a peptide in which the β-hexosaminidase-secreting activity was confirmed at a concentration of 300 nM or less)”.
MLATRVFSLVGKRAISTSVCVR [compound 018]: in assay [2] (setting [4]), the EC50 came out at 6.1 µM. Also, the “Activity (β-hexosaminidase-secreting activity class)” value in assay [2] (setting [5]) was “∘ (a peptide in which the β-hexosaminidase-secreting activity was confirmed at a concentration of 1 μM or less)”.
The like results for “MLRLPTVFRQMRPVSRVLAPHLTRAY [compound 024]” were, in that order, 1.1 µM and “⊚ (a peptide in which the β-hexosaminidase-secreting activity was confirmed at a concentration of 300 nM or less)”.
The like results for MLRNLLALRQIGQRTISTASRRH [compound 012] were, in that order, 0.78 µM and “∘ (a peptide in which the β-hexosaminidase-secreting activity was confirmed at a concentration of 1 μM or less)”.
Taken in the same sequence, the figures for MLWNLLALHQIGQRTISTASHRH [compound 019] were 0.23 µM and “⊚ (a peptide in which the β-hexosaminidase-secreting activity was confirmed at a concentration of 300 nM or less)”.
In the case of “MLWNLLALHQIGQRTISTASHRHFKNKVPEKQK [No. 032]”, the “concentration of migration activity compared with that of β-hexosaminidase-secreting activity” value in assay [1] is given as “confirmed at the concentration lower than the concentration at which β-hexosaminidase-secreting activity was confirmed”. Also, in assay [2] (differentiated HL-60 cells), the “β-hexosaminidase-secreting activity of C-terminally extended peptide compared to the peptide before the extension” value is “higher activity compared to the peptides before the extension”. Also, in assay [2] (setting [3]), the 50% effective concentration (EC50) was determined as 0.15 µM.
Regarding “MLWNLLALHQIGQRTISTASHRHFKNKVPEKQK [compound 032]”, the EC50 in assay [2] (setting [4]) was determined as 0.15 µM. In assay [2] (setting [5]), the “Activity (β-hexosaminidase-secreting activity class)” value is “⊚ (a peptide in which the β-hexosaminidase-secreting activity was confirmed at a concentration of 300 nM or less)”.
The like results for MQALRVSQALIRSFSSTARNR [compound 011] were, in that order, 1.7 µM and “⊚ (a peptide in which the β-hexosaminidase-secreting activity was confirmed at a concentration of 300 nM or less)”.
For MSVLTPLLLRGLTGSARRLPVPRAK [No. 007], in assay [2] (setting [3]), the EC50 was found to be 8 µM.
Consider “MSVLTPLLLRGLTGSARRLPVPRAK [compound 007]”, for which, in assay [2] (setting [4]), the EC50 came out at 8 µM. Besides, the “Activity (β-hexosaminidase-secreting activity class)” value in assay [2] (setting [5]) was “∘ (a peptide in which the β-hexosaminidase-secreting activity was confirmed at a concentration of 1 μM or less)”.
With “MSVLTPLLLRGLTGSARRLPVPRAKIHSLPPEGK [No. 033]”, the “β-hexosaminidase-secreting activity of C-terminally extended peptide compared to the peptide before the extension” value in assay [2] (differentiated HL-60 cells) was “higher activity compared to the peptides before the extension”. Besides, the EC50 in assay [2] (setting [3]) amounted to 6 µM.
For “MSVLTPLLLRGLTGSARRLPVPRAKIHSLPPEGK [compound 033]”, the concentration giving a half-maximal response (EC50) in assay [2] (setting [4]) was 6 µM. The “Activity (β-hexosaminidase-secreting activity class)” value in assay [2] (setting [5]) is “∘ (a peptide in which the β-hexosaminidase-secreting activity was confirmed at a concentration of 1 μM or less)”.
